According to US20060106026A1, “4-(4-methylpiperazin-1-ylmethyl)-n-[4-pyridin-3-yl)pyrimidin-2-ylamino)phenyl]-benzamide for treating anaplastic thyroid cancer” (priority 2002, published 2006):
Read-outs that look alike come from different tables or passages of the source.

Tested on: cell cycle regulatory proteins (p21cip1, p27kip1, cyclin A, B1, CDC2, cyclin D3)
Excerpt: After transfer onto nitrocellulose membranes (Pall Corporation, Ann Arbor, Mich., USA), blots were probed with the appropriate antibodies. β-actin was used as a loading control. The antibodies used were: anti-p21waf1 (Ab-1, Calbiochem, Darmstardt, Germany), anti-p27-8, Santa Cruz Biotechnology, Santa Cruz, Calif., USA), anti-cyclin A (C88020, BD Biosciences, Boston, Mass., USA), anti-cyclin B1 (C23420, BD Biosciences), anti-CDK1/Cdc2 (C12720, BD Biosciences), anti-cyclin D3 (C28620, BD Biosciences), anti-Phospho-c-ABL (Tyr245, Cell Signaling Technology, Beverly, Mass., USA), anti-c-Abl (24-11, Santa Cruz Biotechnology), anti-c-KIT (C-14, Santa Cruz Biotechnology), anti-PDGFRα (C-20, Santa Cruz Biotechnology), anti-PDGFRβ (P-20, Santa Cruz Biotechnology), anti-ERK1/2 (Cell Signalling Technology), anti-p-ERK (Cell Signalling Technology) and anti-Actin (C-11, Santa Cruz Biotechnology). Detection was performed with an enhanced chemiluminescence kit (ECL, Amersham Life Sciences, Buckinghamshire, UK). Immunoblotting experiments were performed at least twice. […] Since p53 status is likely to have some effect on the level of c-Abl protein, the expression level of c-Abl in 1F3 cells was also measured. […] The cyclin-dependent kinase (CDK) inhibitors, p21^cip1 and p27^kip1, can block CDK activity in the S to G2 as well as in the G1 to S phase transition of the cell cycle. […] The activity of CDKs is dependent, in part, on the relative abundance of cyclin subunits and the presence of CDK inhibitors. Among the cyclins and CDKs, cyclin A, B, and CDC2 are involved in the progression from G2 to M phase.

Compound: CS(=O)(=O)O.Cc1ccc(NC(=O)c2ccc(CN3CCN(C)CC3)cc2)cc1Nc1nccc(-c2cccnc2)n1 [SALT I]
- Expression of p2^cip1: markedly increased
- Expression of p27^kip1: increased
- levels of cyclin A, B1 and CDC2 (ARO and FRO cell lines, 10 μM of SALT I, 24 hours): reduced
- level of cyclin D3 (ARO cells, 10 μM of SALT I, 24 hours): reduced
- Expression of p2^cip1 (ARO, KTC-1 and 1F3 cells, 10 μM of SALT I): did not change
- levels of cyclin A, B1, CDC2 and cyclin D3 (KTC-1 and 1F3, 10 μM of SALT I, 24 hours): had no effect
